Counter-ions that a name gives are not always drawn.
Legend:
HeLa cells [1] = assay: Autophagy detection test (1): fluorescent microscopy of HeLa cells after introducing the compound, with autophagy induced or inhibited; type: cell-based; conditions: for fluorescent intensity in HeLa cells in the presence of Bafilomycin: Bafilomycin (0.1 μM bafilomycin A1), autophagy hardly occurs; for fluorescent intensity in HeLa cells in the presence of Bafilomycin / fluorescent intensity in HeLa cells, control group / fluorescent intensity in HeLa cells under starvation condition / change of fluorescent intensity in HeLa cells when bafilomycin was added under starvation condition: FIG. 7; for fluorescent intensity in HeLa cells, control group: Control (autophagy hardly occurs); for fluorescent intensity in HeLa cells under starvation condition: Starved; for change of fluorescent intensity in HeLa cells when bafilomycin was added under starvation condition: starvation plus bafilomycin
Protocol: (§1) HeLa cells were seeded on a μ-slide 8 well (Ibidi) and incubated in a CO2 incubator at 37° C. overnight. Compound 4b (1 μM) or Compound 6h (0.1 μM) diluted with serum medium was added and incubated for 30 minutes. After washing twice with serum medium, the cells were incubated at 37° C. for 6 hours or 20 hours in an amino acid-free medium of serum containing-medium and observed with a fluorescent microscope. As an autophagy inducing agent, 0.5 μM Rapamycin was used and as an autophagy inhibiting agent, 10 μM chloroquine and 0.1 μM bafilomycin A1 were used.

HeLa cells [2] = assay: Autophagy detection test (1): evaluation using flow cytometry; type: cell-based; conditions: 1 μM; starvation condition, 6 hours and 20 hours; FIG. 3
Protocol: HeLa cells were seeded on a 24 well plate and incubated in a CO2 incubator at 37° C. overnight, 1 μM of Compound 4b diluted with serum medium was added and incubated for 30 minutes. After washing twice with the serum-free medium, a medium free from amino acid and serum was added and the cells were incubated at 37° C. for 6 hours or 20 hours. Cell were washed with PBS once, peeled with 0.25% trypsin-EDTA and used for flow cytometric analysis.

HeLa cells [3] = assay: Autophagy detection test (4): staining of HeLa cells with Compound 4b and Compound 13, fluorescent microscopy; type: cell-based; conditions: Compound 4b 1 μM and Compound 13 0.1 μM; 3 hours or 6 hours; FIG. 12
Protocol: as §1, with “13” for “6h”, “3” for “6”, “6” for “20”, “microscope.” for “microscope. As an autophagy inducing agent, 0.5 μM Rapamycin was used and as an autophagy inhibiting agent, 10 μM chloroquine and 0.1 μM bafilomycin A1 were used.”

[4] = pH dependence of fluorescent intensity of the fluorescent compounds; type: physicochemical; conditions: for pH dependence of fluorescent intensity: FIG. 6
HeLa cells [5] = assay: Autophagy detection test (2): fluorescent microscopy of HeLa cells under starvation condition; type: cell-based; conditions: 0.1 μM; Starve vs Control; incubated 5 hours; FIG. 10
Protocol: HeLa cells were seeded on a μ-slide 8 well (Ibidi) and incubated in a CO2 incubator at 37° C. overnight. Compound 6h diluted with a serum medium (0.1 μM) was added and incubated for 30 minutes. After washing twice with serum medium, the cells were incubated at 37° C. for 5 hours in an amino acid-free medium of serum containing-medium and observed with a fluorescent microscope.

HeLa cells [6] = assay: Autophagy detection test (3): co-staining of HeLa cells with Compound 6h and Compound 11, fluorescent microscopy; type: cell-based; conditions: Compound 6h 1 μM and Compound 11 0.1 μM; 3 hours or 6 hours; FIG. 11
Protocol: HeLa cells were seeded on a μ-slide 8 well (Ibidi) and incubated in a CO2 incubator at 37° C. overnight. Compound 6h (1 μM) and Compound 11 (0.1 μM) diluted with serum medium was added and incubated for 30 minutes. After washing twice with serum medium, the cells were incubated at 37° C. for 3 hours or 6 hours in an amino acid-free medium of serum containing-medium and observed with a fluorescent microscope.

SMILES	fluorescent intensity in HeLa cells in the presence of Bafilomycin (HeLa cells [1])	fluorescent intensity in HeLa cells, control group (HeLa cells [1])	fluorescent intensity in HeLa cells, autophagy induced by adding Rapamycin (HeLa cells [1]; Rapamycin & Chloroquine group vs Control, 0.5 μM Rapamycin, 10 μM chloroquine, incubated 6 hours and 20 hours, FIG. 2)	fluorescent intensity in HeLa cells, autophagy induced by starvation culture (HeLa cells [1]; Starved group vs Control, incubated 6 hours and 20 hours, FIG. 2)	fluorescent intensity in HeLa cells under starvation condition (HeLa cells [1]; autophagy induced)	change of fluorescent intensity in HeLa cells when bafilomycin was added under starvation condition (HeLa cells [1])	usefulness for detecting autophagy by flow cytometry (HeLa cells [2])	staining pattern in HeLa cells under starvation condition, two compounds introduced together (HeLa cells [3])	pH dependence of fluorescent intensity [4]	shape of fluorescent emission in high-magnification fluorescent microscopic images (HeLa cells [1]; HeLa cells, autophagy induced, FIG. 8, A-1 and A-2)	fluorescent intensity in HeLa cells under starvation condition (HeLa cells [5])	staining pattern in HeLa cells under starvation condition, two compounds introduced together (HeLa cells [6])	pH (acidic condition) under which the fluorescent intensity increases ([4]; FIG. 1 / FIG. 9)
CCCCCN1C(=O)c2cccc3c(N4CCN(CCN)CC4)ccc(c23)C1=O [Compound 4b, 2-(4-(1,3-dioxo-2-pentyl-2,3-dihydro-1H-benzo[de]isoquinolin-6-yl)piperazin-1-yl)ethane-1-amine hydrochloride salt]	low	low	enhancement of the fluorescent intensities was observed	enhancement of the fluorescent intensities was observed	high	decreased	useful for detecting autophagy using not only fluorescent microscopy but also flow cytometry	granular points stained only by Compound 4b and granular points co-stained by Compound 4b and Compound 13					
CCCCCN1C(=O)c2cccc3c(NCCCCCN)ccc(c23)C1=O [Compound 6h, hydrochloride salt]	low	low			high	did not decrease			no pH dependence	ring-shaped fluorescent emission	enhancement of the fluorescent intensity was observed	granular points stained only by Compound 6h and granular points co-stained by Compound 6h and Compound 11	
CCCCCN1C(=O)c2ccc3c4cccc5c(N6CCN(CCN)CC6)ccc(c6ccc(c2c36)C1=O)c54 [Compound 11, 8-(4-(2-aminoethyl)piperazin-1-yl)-2-pentyl-1H-benzo[10,5]anthra[2,1,9-def]isoquinolin-1,3(2H)-dione]												granular points co-stained by Compound 6h and Compound 11	≤ 6
CCCCCN1C(=O)c2ccc3c4cccc5c(NCCCCCN)ccc(c6ccc(c2c36)C1=O)c54 [Compound 13, 5-((1,3-dioxo-2-pentyl-2,3-dihydro-1H-benzo[10,5]anthra[2,1,9-def]isoquinolin-8-yl)amino)pentane-1-amine hydrochloric salt]								granular points co-stained by Compound 4b and Compound 13	no pH dependence				
